The OligoGym collection
HELM strings list units from the 5' end as sugar, base in round brackets, then linkage (d deoxyribose, r ribose, m 2'-O-methyl, p phosphodiester). Strings are as the collection lists them; they lack the last nucleoside at the 3' end of the tested compound. [moe] = 2'-O-(2-methoxyethyl) (MOE); [sp] = phosphorothioate linkage; [m5C] = 5-methylcytosine

Molecular target: SCN2A
Assay: mouse, dose not given
Settings: ASO

| Substance | 3 h FOB score [score 0-7] |
| --- | --- |
| RNA1{[moe](T)[sp].[moe](G)p.[moe](A)p.[moe]([m5C])p.[moe]([m5C])p.[moe](A)p.d([m5C])[sp].d(G)[sp].d([m5C])[sp].d(T)[sp].d(T)[sp].d(A)[sp].d([m5C])[sp].d(A)[sp].d(T)[sp].d([m5C])[sp].[moe](A)p.[moe](A)[sp].[moe](A)}$$$$ (last 3' nucleoside missing) | 1 |
| RNA1{[moe](T)[sp].[moe](G)p.[moe](G)p.[moe](A)p.[moe]([m5C])p.[moe]([m5C])p.d(G)[sp].d(T)[sp].d([m5C])[sp].d(T)[sp].d([m5C])[sp].d(T)[sp].d(T)[sp].d(T)[sp].d([m5C])[sp].d(T)[sp].[moe](T)p.[moe](A)[sp].[moe](T)}$$$$ (last 3' nucleoside missing) | 0 |
| RNA1{[moe](T)[sp].[moe](G)p.[moe](G)p.[moe](A)p.[moe]([m5C])p.d([m5C])[sp].d(G)[sp].d(T)[sp].d([m5C])[sp].d(T)[sp].d([m5C])[sp].d(T)[sp].d(T)[sp].d(T)[sp].d([m5C])[sp].[moe](T)p.[moe](T)p.[moe](A)[sp].[moe](T)}$$$$ (last 3' nucleoside missing) | 1 |
| RNA1{[moe](T)[sp].[moe](G)p.[moe](G)p.[moe](G)p.[moe](T)p.d([m5C])[sp].d(T)[sp].d([m5C])[sp].d(T)[sp].d(T)[sp].d(A)[sp].d(G)[sp].d([m5C])[sp].d(T)[sp].d(T)[sp].[moe](T)p.[moe]([m5C])p.[moe](T)[sp].[moe]([m5C])}$$$$ (last 3' nucleoside missing) | 1.33 |
| RNA1{[moe](T)[sp].[moe](G)p.[moe](G)p.[moe]([m5C])p.[moe](T)p.d(A)[sp].d(T)[sp].d(A)[sp].d([m5C])[sp].d(T)[sp].d([m5C])[sp].d(A)[sp].d(T)[sp].d(T)[sp].d(G)[sp].[moe]([m5C])p.[moe](T)p.[moe]([m5C])[sp].[moe](T)}$$$$ (last 3' nucleoside missing) | 1 |
| RNA1{[moe](T)[sp].[moe](G)p.[moe](T)p.[moe](A)p.[moe](A)p.[moe]([m5C])p.d([m5C])[sp].d(T)[sp].d(T)[sp].d(T)[sp].d(A)[sp].d(T)[sp].d(A)[sp].d([m5C])[sp].d(A)[sp].d(T)[sp].[moe](T)p.[moe](T)[sp].[moe](A)}$$$$ (last 3' nucleoside missing) | 0 |
| RNA1{[moe](T)[sp].[moe](G)p.[moe](T)p.[moe](A)p.[moe](A)p.d([m5C])[sp].d([m5C])[sp].d(T)[sp].d(T)[sp].d(T)[sp].d(A)[sp].d(T)[sp].d(A)[sp].d([m5C])[sp].d(A)[sp].[moe](T)p.[moe](T)p.[moe](T)[sp].[moe](A)}$$$$ (last 3' nucleoside missing) | 0 |
| RNA1{[moe](T)[sp].[moe](G)p.[moe](T)p.[moe](A)p.d(A)[sp].d([m5C])[sp].d([m5C])[sp].d(T)[sp].d(T)[sp].d(T)[sp].d(A)[sp].d(T)[sp].d(A)[sp].d([m5C])[sp].[moe](A)p.[moe](T)p.[moe](T)p.[moe](T)[sp].[moe](A)}$$$$ (last 3' nucleoside missing) | 0 |
| RNA1{[moe](T)[sp].[moe](G)p.[moe](T)p.[moe](T)p.[moe](T)p.d(G)[sp].d(G)[sp].d(G)[sp].d(T)[sp].d([m5C])[sp].d(T)[sp].d([m5C])[sp].d(T)[sp].d(T)[sp].d(A)[sp].[moe](G)p.[moe]([m5C])p.[moe](T)[sp].[moe](T)}$$$$ (last 3' nucleoside missing) | 2.33 |
| RNA1{[moe](T)[sp].[moe](G)p.[moe]([m5C])p.[moe](A)[sp].d(T)[sp].d(G)[sp].d(T)[sp].d(A)[sp].d(A)[sp].d([m5C])[sp].d([m5C])[sp].d(T)[sp].[moe](T)p.[moe](T)p.[moe](A)p.[moe](T)[sp].[moe](A)}$$$$ (last 3' nucleoside missing) | 0 |
| RNA1{[moe](T)[sp].[moe](G)p.[moe]([m5C])p.[moe](A)p.[moe](T)[sp].d(G)[sp].d(T)[sp].d(A)[sp].d(A)[sp].d([m5C])[sp].d([m5C])[sp].d(T)[sp].d(T)[sp].[moe](T)p.[moe](A)p.[moe](T)[sp].[moe](A)}$$$$ (last 3' nucleoside missing) | 0 |
| RNA1{[moe](T)[sp].[moe](G)p.[moe]([m5C])p.[moe](A)p.[moe](T)p.[moe](A)p.d(A)[sp].d(T)[sp].d([m5C])[sp].d([m5C])[sp].d([m5C])[sp].d(A)[sp].d(T)[sp].d(T)[sp].d(A)[sp].d(T)[sp].[moe](A)p.[moe]([m5C])[sp].[moe](A)}$$$$ (last 3' nucleoside missing) | 0 |
| RNA1{[moe](T)[sp].[moe](G)p.[moe]([m5C])p.[moe](A)p.[moe](T)p.[moe](G)[sp].d(T)[sp].d(A)[sp].d(A)[sp].d([m5C])[sp].d([m5C])[sp].d(T)[sp].d(T)[sp].d(T)[sp].[moe](A)p.[moe](T)[sp].[moe](A)}$$$$ (last 3' nucleoside missing) | 0 |
| RNA1{[moe](T)[sp].[moe](G)p.[moe]([m5C])p.[moe](A)p.[moe](T)p.[moe](G)p.d(T)[sp].d(A)[sp].d(A)[sp].d([m5C])[sp].d([m5C])[sp].d(T)[sp].d(T)[sp].d(T)[sp].d(A)[sp].d(T)[sp].[moe](A)p.[moe]([m5C])[sp].[moe](A)}$$$$ (last 3' nucleoside missing) | 0 |
| RNA1{[moe](T)[sp].[moe](G)p.[moe]([m5C])p.[moe](A)p.[moe](T)p.d(A)[sp].d(A)[sp].d(T)[sp].d([m5C])[sp].d([m5C])[sp].d([m5C])[sp].d(A)[sp].d(T)[sp].d(T)[sp].d(A)[sp].[moe](T)p.[moe](A)p.[moe]([m5C])[sp].[moe](A)}$$$$ (last 3' nucleoside missing) | 0 |
| RNA1{[moe](T)[sp].[moe](G)p.[moe]([m5C])p.[moe](A)p.[moe](T)p.d(G)[sp].d(T)[sp].d(A)[sp].d(A)[sp].d([m5C])[sp].d([m5C])[sp].d(T)[sp].d(T)[sp].d(T)[sp].d(A)[sp].[moe](T)p.[moe](A)p.[moe]([m5C])[sp].[moe](A)}$$$$ (last 3' nucleoside missing) | 1 |
| RNA1{[moe](T)[sp].[moe](G)p.[moe]([m5C])p.[moe](A)p.d(T)[sp].d(A)[sp].d(A)[sp].d(T)[sp].d([m5C])[sp].d([m5C])[sp].d([m5C])[sp].d(A)[sp].d(T)[sp].d(T)[sp].[moe](A)p.[moe](T)p.[moe](A)p.[moe]([m5C])[sp].[moe](A)}$$$$ (last 3' nucleoside missing) | 0 |
| RNA1{[moe](T)[sp].[moe](G)p.[moe]([m5C])p.[moe](A)p.d(T)[sp].d(G)[sp].d(T)[sp].d(A)[sp].d(A)[sp].d([m5C])[sp].d([m5C])[sp].d(T)[sp].d(T)[sp].d(T)[sp].[moe](A)p.[moe](T)p.[moe](A)p.[moe]([m5C])[sp].[moe](A)}$$$$ (last 3' nucleoside missing) | 0 |
| RNA1{[moe](T)[sp].[moe](G)p.[moe]([m5C])p.[moe](T)p.[moe]([m5C])p.d(A)[sp].d([m5C])[sp].d(T)[sp].d(G)[sp].d(T)[sp].d([m5C])[sp].d([m5C])[sp].d(T)[sp].d(A)[sp].d(T)[sp].[moe](T)p.[moe](G)p.[moe](A)[sp].[moe](A)}$$$$ (last 3' nucleoside missing) | 4 |
| RNA1{[moe](T)[sp].[moe](G)p.[moe]([m5C])p.[moe]([m5C])p.[moe](A)p.[moe](T)p.d(T)[sp].d(T)[sp].d([m5C])[sp].d(T)[sp].d(A)[sp].d(T)[sp].d(A)[sp].d(A)[sp].d([m5C])[sp].d(T)[sp].[moe]([m5C])p.[moe](A)[sp].[moe](G)}$$$$ (last 3' nucleoside missing) | 0 |
| RNA1{[moe](T)[sp].[moe](T)p.[moe](G)p.[moe](A)p.[moe]([m5C])p.d([m5C])[sp].d(A)[sp].d([m5C])[sp].d(G)[sp].d([m5C])[sp].d(T)[sp].d(T)[sp].d(A)[sp].d([m5C])[sp].d(A)[sp].[moe](T)p.[moe]([m5C])p.[moe](A)[sp].[moe](A)}$$$$ (last 3' nucleoside missing) | 2 |
| RNA1{[moe](T)[sp].[moe](T)p.[moe](G)p.[moe](G)p.[moe](G)p.d(T)[sp].d([m5C])[sp].d(T)[sp].d([m5C])[sp].d(T)[sp].d(T)[sp].d(A)[sp].d(G)[sp].d([m5C])[sp].d(T)[sp].[moe](T)p.[moe](T)p.[moe]([m5C])[sp].[moe](T)}$$$$ (last 3' nucleoside missing) | 2.67 |
| RNA1{[moe](T)[sp].[moe](T)p.[moe](T)p.[moe](G)p.[moe](G)p.d(G)[sp].d(T)[sp].d([m5C])[sp].d(T)[sp].d([m5C])[sp].d(T)[sp].d(T)[sp].d(A)[sp].d(G)[sp].d([m5C])[sp].[moe](T)p.[moe](T)p.[moe](T)[sp].[moe]([m5C])}$$$$ (last 3' nucleoside missing) | 3.33 |
| RNA1{[moe](T)[sp].[moe](T)p.[moe](T)p.[moe](G)p.[moe]([m5C])p.[moe]([m5C])p.d(A)[sp].d(T)[sp].d(T)[sp].d(T)[sp].d([m5C])[sp].d(T)[sp].d(A)[sp].d(T)[sp].d(A)[sp].d(A)[sp].[moe]([m5C])p.[moe](T)[sp].[moe]([m5C])}$$$$ (last 3' nucleoside missing) | 0 |
| RNA1{[moe](T)[sp].[moe](T)p.[moe](T)p.[moe](G)p.d(G)[sp].d(G)[sp].d([m5C])[sp].d([m5C])[sp].d(A)[sp].d(T)[sp].d(T)[sp].d(T)[sp].d(T)[sp].d([m5C])[sp].[moe](A)p.[moe](T)p.[moe]([m5C])p.[moe](A)[sp].[moe](T)}$$$$ (last 3' nucleoside missing) | 0 |
| RNA1{[moe](T)[sp].[moe](T)p.[moe]([m5C])p.[moe](T)p.[moe](A)p.[moe](T)p.d(T)[sp].d(T)[sp].d(T)[sp].d(A)[sp].d(T)[sp].d(A)[sp].d(A)[sp].d(A)[sp].d(T)[sp].d(G)[sp].[moe]([m5C])p.[moe]([m5C])[sp].[moe](G)}$$$$ (last 3' nucleoside missing) | 3 |
